In ChEMBL document CHEMBL3507680, “University of Dundee, Gates Library screen for HepG2 cell viability”:

Assay: Human HepG2 cell viability assay in 384 well format
Assay type: toxicity, cell-based
Parameters: dose 125 nL, time 70.5 hour; cytotoxicity at 70.5 h: concentration not given beside the values
Conditions: HepG2 cells, read-out: Inhibition

Structure (SMILES) | cytotoxicity at 70.5 h [%]
O=C(c1cnccn1)N1CCc2onc(CN3CCOCC3)c2C1 | 23.2
CC(c1nncn1C)n1cc(-c2cc(CN3CCCC3)cs2)nn1 (configuration not stated) | 15.8
CN(Cc1cncnc1)Cc1cn2c(n1)CN(C1CCOC1)CC2 (configuration not stated) | -13.2
O=C(CN1CCCC1c1nc(-c2ccccc2)no1)N1CCOCC1 (configuration not stated) | -4.9
NC[C@H]1CC[C@H](C(NC(=O)c2ccccc2)c2ccccn2)CC1 (some centres not stated) | 11.1
c1ccc(CCNC2CCc3ncnn3C2)nc1 (configuration not stated) | 3.59
CC(c1nc(C2CC2)no1)N1CCN(Cc2ccccc2)CC1 (configuration not stated) | -4.04
CN1CC(=O)N(c2cnn(C)c2)CC12CCN(C(=O)c1ccsc1)C2 (configuration not stated) | -7.55
c1cnc2c(-c3nccn3C[C@@H]3CCCN4CCCC[C@H]34)cccc2c1 | 2.23
CCn1cc(Cl)c(C(=O)NCc2cnn(C)c2)n1 | -0.0278
CCC(=O)Nc1ccc2c(ccn2CCOC)c1 | -8.06
O=C(Cc1ccco1)N1C[C@@H]2COC[C@]2(COCC2CCOCC2)C1 | -7.33
CCOCC1COCCC12CCN(C(=O)CCOC)CC2 (configuration not stated) | -17.1
COc1nsc2nc(C3CCCN3C(C)=O)ccc12 (configuration not stated) | -3.15
CC(C)OCCN(Cc1cccc(O)c1)C1CCC(O)CC1 (configuration not stated) | -3.81
CC(=O)N1C[C@H](NS(=O)(=O)N2CCOCC2)[C@@H](c2ccc(C)o2)C1 | -7.85
CCCn1cc(CN2CCC(c3[nH]ncc3S(C)(=O)=O)C2)cn1 (configuration not stated) | -7.48
CNc1ncc(CN(C)c2ncnc3onc(C)c23)cn1 | 8.52
CCC(C)N(C)CCNC(=O)c1ccccc1OCCOC (configuration not stated) | -6.03
O=C(c1cc(-c2cccs2)cs1)N1CCSCC1 | -5.68
CC(C)NC(=O)N1CCC2(CC1)[C@@H]1CN(C(=O)N(C)C)C[C@@H]1C(=O)N2C | -7.71
CC(C)OCCS(=O)(=O)N1CCN(Cc2ccco2)CC1 | -4.45
COc1ccc(Oc2nccc3occc23)cc1CN1CCCC1 | -6.39

Structure (SMILES) | cytotoxicity at 70.5 h [%]
Cc1nnc2n1CCN(CC(=O)N1CCc3ccccc3C1)C2 | 49.9
CCn1c(CN(C)C)nnc1C1CCN(Cc2cccc(OC)c2)CC1 | 4.9
O=C([C@H]1CN(Cc2nccs2)C[C@H]2OCC[C@@H]12)N1CCCC1 | 10.2
CCn1c(N)nc2cc(C(=O)N3CCC(N4CCCC4)CC3)cnc21 | -5.99
Cn1nnc2c1C(COCc1ccccn1)CN(Cc1ccoc1)C2 (configuration not stated) | -12.1
CN(C)C(=O)c1cccc(C[S+]([O-])CC(=O)NC2CCCC2)c1 (configuration not stated) | 5.53
CC(=O)CSc1nc2c(cnn2CCO)c(=O)[nH]1 | 21.3
CC(C)(N)C(=O)N1CCC(c2nccnc2Oc2cccc(F)c2)CC1 | -10.4
CCn1cc(N2Cc3nc(N)ncc3C2=O)cn1 | 29.8
CCCC(=O)NCCc1cc(N2CCN(C(C)=O)CC2)nc(C2CC2)n1 | -6.31
CNS(=O)(=O)c1ccc(CN2CCN3CCNC(=O)C3C2)cc1 (configuration not stated) | -6.1
CS(=O)(=O)c1cccc2c1CCCN2C(=O)Cc1cccc(F)c1 | -2.8
Cn1nc2c(cc1=O)CN(Cc1nnc(-c3ccc(F)cc3)o1)CC2 | -22.9
COc1ccc2c(c1)OCC(CNC(=O)CCc1c(C)n[nH]c1C)C2 (configuration not stated) | -1.4
CN1CCN(C[C@@H]2CN(C(=O)CC3CCCCC3)C[C@@H]2CO)CC1 | 0.234
Cc1nc(N2CCCC2)ncc1-c1cc(O)nc(N2CCCCC2)n1 | -10.4
CCn1cnnc1CNC(=O)N1CCOC(c2ccc(Cl)cc2)C1 (configuration not stated) | -13.5
CC(C)(C#N)CCCS(=O)(=O)c1nccn1-c1cccc(F)c1 | -10.9
Cc1cc(C[S+]([O-])Cc2ccccc2F)on1 (configuration not stated) | -8.66
Cc1nc(CN2CCCCC2Cn2cncn2)nc2ccccc12 (configuration not stated) | 20.9
OCCn1nccc1C1CCN(CCOc2ccccc2Cl)CC1 | -0.941
O=C(Cc1ccccn1)N1CCC(c2noc(-c3ccncc3)n2)CC1 | 5.1
COCC(C)NC(=O)c1cc(C)n(-c2cccc(OC)c2)c1C (configuration not stated) | -5.2

Structure (SMILES) | cytotoxicity at 70.5 h [%]
Cc1ccc(NC2CCCN(C3Cc4ccccc4C3)C2)nn1 (configuration not stated) | -4.1
Cn1ccc2ccnc(CC3CN(C(=O)C4CCC(F)(F)CC4)C3)c21 | 3.02
O=C(CN1CCOCC1)Nc1ccc(C(F)(F)F)cc1Cl | 14.6
O=C(CSc1ccccn1)N1CCN(CCO)[C@@H]2CS(=O)(=O)C[C@@H]21 | 2.3
CSc1ccc(CNC(=O)Cc2c(C)n[nH]c2C)cc1 | -6.16
CC(=O)NCCNC(=O)Nc1ccc(C)cc1OCc1ccccc1 | -1.2
CCNc1nc(-c2cccnc2)c(-c2ccnc(N3CCCC3)n2)s1 | -6.77
CC(NC(=O)N(C)Cc1ccc2c(c1)OCCO2)c1nncn1C (configuration not stated) | -0.921
CCO[C@H]1C[C@@H](O)C12CCN(S(=O)(=O)c1ccccc1OC)CC2 | -13.9
N#Cc1cccc(C(=O)N2CCn3c(Cn4cncn4)cnc3C2)c1 | -5.58
Fc1ccc(-c2cnc(C3CCCN3)cn2)cc1 (configuration not stated) | -2.54
O=C(c1cncc(N2CCC3(CC2)NCCNC3=O)n1)N1CCCCC1 | -4.89
CCc1nnc(CNCC2CCCN2c2cccnn2)o1 (configuration not stated) | -3.72
CCc1cc(C(=O)N2CCCC(Cc3ccc(NC)nn3)C2)on1 (configuration not stated) | 50.7
CC(C)=Cc1c(-c2ccccc2)ncn1CCN(C)S(C)(=O)=O | 0.261
Cc1cccc(OCc2nnc(SCC3CCCN(C)C3)o2)c1 (configuration not stated) | -5.28
CC(=O)Nc1ccc([C@@H](O)[C@H]2COCC(=O)N2CC(C)C)cc1 | 1.58
CCC(CC)C(CNC(=O)Nc1cnn(CCOC)c1)N(C)C (configuration not stated) | -8.7
COc1ccccc1OC1CCN(Cc2cnc(N(C)C)nc2)CC1 | -7.45
CNS(=O)(=O)c1ccc(C(=O)N2CCCC(n3cccn3)C2)cc1 (configuration not stated) | -8.29
CCCN1CCCC2(CCN(Cc3cncn3C3CCCCC3)C2)C1=O (configuration not stated) | -7.64
CN(C)S(=O)(=O)N1CCCC(c2ccncn2)C1 (configuration not stated) | -5.39
Cc1nn(C)cc1CN1C[C@@H]2CC[C@H](C1)N(Cc1c(C)noc1C)C2=O | 32.1

Structure (SMILES) | cytotoxicity at 70.5 h [%]
CCN1C(=O)C2(CCOCC2)c2cc(NC(=O)COC)ccc21 | 14.9
O=C(O)CCCc1ccc2c(c1)CC(=O)N2 | -9.78
CC(C)CCC(=O)N1CCN(C(C)c2nnc(CC(C)C)o2)CC1 (configuration not stated) | 23.3
O=C(NCC(Cc1cccc(F)c1)N1CCCC1=O)c1ccc[nH]c1=O (configuration not stated) | -16.4
Clc1ccc(-c2ccc(C3CNCCO3)nc2)cc1 (configuration not stated) | -0.52
CN1C(=O)C2(CCN(S(=O)(=O)C3CC3)CC2)c2ccccc21 | -2.07
O=C1CC2(CCSC2)C(=O)N1Cc1coc(-c2ccc(F)cc2)n1 (configuration not stated) | -3.42
CC(C)[C@@H]1CN(Cc2cnc3c(S(C)(=O)=O)cnn3c2)C[C@H]1N(C)C | -7.81
CCc1nnc(C(C)N2CCN(CCC(C)(C)C)CC2)o1 (configuration not stated) | -7.09
NC(=O)NCC(=O)N1C[C@H]2CC[C@@H]1CN(Cc1ccccc1)C2 | 1.42
Cc1nnc(NC(=O)CCc2c(C)nn3cnnc3c2C)s1 | -7.03
Cc1cc(C)c(C(=O)N2CCc3c(ncn3CCc3ccccc3)C2)[nH]1 | -8.62
Cc1ncc(CNC2CC(=O)N(CCc3ccc(F)cc3)C2)n1C (configuration not stated) | -10.7
O=C(Nc1cccc(N2CCN(CC3CC3)CC2)c1)C1CCCO1 (configuration not stated) | 17
CC(C)c1nccn1C1CCCN(C(=O)c2ccc3c(c2)COC3)C1 (configuration not stated) | -8.53
CCC(=O)N1CCC(Cc2cnc(Nc3cnccn3)cn2)CC1 | -11.1
CNC(=O)[C@@H]1C[C@@H](N)CN1c1nnc(-c2ccccc2)s1 | -4.95
Cc1cccc(NC(=O)c2ccc(-n3cncn3)nn2)n1 | -1.44
COc1ccc(C(=O)NS(C)(=O)=O)cc1-c1ccccc1 | -1.59
CCCn1ncc2c(C(=O)NC(C)Cn3cccn3)cc(C3CC3)nc21 (configuration not stated) | -13.1
CC(C)c1noc(CCC(=O)NCC2CC2)n1 | 23.5
Cc1cccc(C2N3CCC4(CC3)c3[nH]c5ccccc5c3CCN24)n1 (configuration not stated) | 5.13
CCn1nc(C)cc1C(=O)N1C[C@@H](CN(C)C)[C@@H](CO)C1 | -2.98

Structure (SMILES) | cytotoxicity at 70.5 h [%]
CN(C(=O)Cc1ccc(NC(=O)NC2CC2)cc1)c1ccccc1 | 19.9
COc1ccc(N(CCC(N)=O)C(=O)CSc2ccc(F)c(F)c2)cc1 | -12.7
Cc1nc2n(n1)CC(Nc1cc(C(F)(F)F)nc3ncnn13)CC2 (configuration not stated) | -0.866
Cn1nc(CN2CCCC2)c2c1CN(C(=O)Nc1cccc(F)c1)CC2 | -7.05
CN(CC1CC1)c1ccc2ccc(C(=O)NC3CCCCC3)cn12 | 12.9
N#Cc1cn(CC(=O)NC2CC2)c2ccc(Br)cc2c1=O | -7.46
CN(CCO)Cc1nnc(C2CCN(C(=O)c3cccnc3)CC2)n1C | -10.6
O=C(CCn1c(=O)oc2ccccc21)NCC(O)c1ccc(Cl)cc1 (configuration not stated) | 9.7
COCCN1C[C@H]2CC[C@@H]1CN(C(=O)CCc1c(C)nn(C)c1C)C2 | -3.68
Cn1ncc(NC(=O)Cn2ccc(-c3cccc(F)c3)n2)n1 | 1.6
CN1C(=O)CC(c2ccccc2)C12CCN(c1ncccn1)CC2 (configuration not stated) | 27.6
CCC(C)(N)c1nc(=O)c(C(C)C)c(C)[nH]1 (configuration not stated) | -5.63
COc1cccc(C(=O)C2CCCN(c3nccc(N)n3)C2)c1 (configuration not stated) | -3.78
CC(c1nccs1)N(C)S(=O)(=O)NCc1ccccc1 (configuration not stated) | 25.4
N#Cc1ccc(N2CCCN(CC(=O)N3CCC3)CC2)cc1 | -2.99
CCN(C)c1ncnc2c1CCN(CC1CCOC1)CC2 (configuration not stated) | -8.27
CCCc1nnc(N2CCC(N3CCCC(O)C3)CC2)o1 (configuration not stated) | 7.96
CSc1ccc(CNc2ccccc2CN2CCC(O)CC2)cc1 | -3.71
O=C(c1cc(-c2cccnc2)[nH]n1)N1CCCC(c2cnccn2)C1 (configuration not stated) | 12
CCN(c1ccccc1C(=O)O)S(=O)(=O)c1cccc2cccnc12 | 1.89
